Reference: patent publication US20260070945A1, “MACROCYCLIC IMMUNOMODULATORS” (Bristol-Myers Squibb Company, priority 2022, published 2026)
*1 amine or outer side, *2 acyl side, *3 side chain or, on linkers, in order; H or OH if unused. Where a SMILES comes first, the peptide text is derived from it. Bridges are numbered along the chain shown (N, C = ends). [ ]: non-standard residue; d: D form. The star is where a group is joined. ξ: configuration not given here. Phe(4-COOH) = N[C@@H](Cc1ccc(C(=O)O)cc1)C(=O)O; Bip = N[C@@H](Cc1ccc(-c2ccccc2)cc1)C(=O)O; γGlu = O=C(O)[C@H](CCC(=O)[*:2])N[*:1]; 4Pal = N[C@@H](Cc1ccncc1)C(=O)O; Cha = N[C@@H](CC1CCCCC1)C(=O)O; Ile(3ξ) = CCC(C)[C@H](N)C(=O)O; Thr(3ξ) = CC(O)[C@H](N)C(=O)O; dOrn = NCCC[C@@H](N)C(=O)O; Carboxymethyl = O=C(O)C*; NMeA = CN[C@@H](C)C(=O)O; Orn = NCCC[C@H](N)C(=O)O; dDap = NC[C@@H](N)C(=O)O; Aun = NCCCCCCCCCCC(=O)O; Dab = NCC[C@H](N)C(=O)O; Dap = NC[C@H](N)C(=O)O; AEEA = NCCOCCOCC(=O)O

Biological target: T1, PD-1/PD-L1 interaction (PE-labeled human PD-L1-Ig binding to Jurkat cell line over-expressing human PD-1) (Homo sapiens, UniProt Q15116)
T1 construct: expressed in transfected cells; host or cells: Jurkat
T1 sequence (Q15116 25-288): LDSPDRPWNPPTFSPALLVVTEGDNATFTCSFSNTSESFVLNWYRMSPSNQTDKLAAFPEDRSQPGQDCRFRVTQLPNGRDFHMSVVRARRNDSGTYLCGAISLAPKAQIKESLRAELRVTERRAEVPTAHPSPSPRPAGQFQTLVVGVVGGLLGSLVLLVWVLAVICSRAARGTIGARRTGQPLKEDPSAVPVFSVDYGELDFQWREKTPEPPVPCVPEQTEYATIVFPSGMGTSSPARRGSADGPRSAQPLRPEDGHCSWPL
Assay: Jurkat-PD-1 Cell Binding High-Content Screening Assay (CBA)
Conditions: Jurkat-hPD-1 cells, PE-labeled PD-L1-Ig 20 nM final; read-out: Jurkat HPD1 PDL1 IC50
Method in brief: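 High-content imaging read-out of PE-PD-L1-Ig binding (20 nM final, 1 h) to Jurkat-hPD-1 cells, after 2 h compound exposure at 37 °C in DMEM with 10% FCS. Nuclei counterstained with Hoechst 33342 after paraformaldehyde fixation.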

| IC50 [nM] | Compound |
| --- | --- |
| 21.1 | CCC(C)[C@@H]1NC(=O)[C@H](Cc2ccc(-c3ccccc3)cc2)NC(=O)[C@H](CC(C)C)NC(=O)[C@H](Cc2c[nH]c3ccccc23)NC(=O)[C@H](CC(=O)O)NC(=O)[C@H](Cc2ccc(OCC(=O)O)cc2)NC(=O)[C@H](Cc2ccncc2)NC(=O)CSC[C@@H](C(=O)N[C@H](CC(N)=O)C(=O)NCCOCCOCC(=O)NCCCCCCCCCCC(=O)O)NC(=O)[C@H](CO)NC(=O)[C@H](C(C)C)NC(=O)[C@H](CC(C)C)NC(=O)[C@H](CCN)NC(=O)[C@@H](CC(C)C)NC(=O)[C@H](C)N(C)C1=O (stereo partly drawn) [Example 2064] ({CH2CO}-[4Pal]Y(Carboxymethyl)DWL[Bip][Ile(3ξ)][NMeA][dL][Dab]LVSC[dN][AEEA][Aun]-OH; thioether N-14) |
| 17.3 | CCC(C)[C@@H]1NC(=O)[C@H](Cc2ccc(-c3ccccc3)cc2)NC(=O)[C@H](CC(C)C)NC(=O)[C@H](Cc2c[nH]c3ccccc23)NC(=O)[C@H](CC(=O)O)NC(=O)[C@H](Cc2ccc(C(=O)O)cc2)NC(=O)[C@H](Cc2ccc(OCC(=O)O)cc2)NC(=O)CSC[C@@H](C(=O)N[C@H](CC(N)=O)C(=O)NCCOCCOCC(=O)NCCCCCCCCCCC(=O)O)NC(=O)[C@H](CO)NC(=O)[C@H](C(C)C)NC(=O)[C@H](CC2CCCCC2)NC(=O)[C@H](CCN)NC(=O)[C@@H](CC(C)C)NC(=O)[C@H](C)N(C)C1=O (stereo partly drawn) [Example 2065] ({CH2CO}-Y(Carboxymethyl)[Phe(4-COOH)]DWL[Bip][Ile(3ξ)][NMeA][dL][Dab][Cha]VSC[dN][AEEA][Aun]-OH; thioether N-14) |
| 110 | CCC(C)[C@@H]1NC(=O)[C@H](Cc2ccc(-c3ccccc3)cc2)NC(=O)[C@H](CC(C)C)NC(=O)[C@H](Cc2c[nH]c3ccccc23)NC(=O)[C@H](CC(=O)O)NC(=O)[C@H](Cc2ccc(C(=O)O)cc2)NC(=O)[C@H](Cc2ccc(OCC(=O)O)cc2)NC(=O)CSC[C@@H](C(=O)NCCOCCOCC(=O)N[C@@H](CN)C(=O)NCCCCCCCCCCC(=O)O)NC(=O)[C@H](CO)NC(=O)[C@H](C(C)C)NC(=O)[C@H](CC2CCCCC2)NC(=O)[C@H](CC(N)=O)NC(=O)[C@@H](CC(C)C)NC(=O)[C@H](C)N(C)C1=O (stereo partly drawn) [Example 2066] ({CH2CO}-Y(Carboxymethyl)[Phe(4-COOH)]DWL[Bip][Ile(3ξ)][NMeA][dL]N[Cha]VSC[AEEA][Dap][Aun]-OH; thioether N-14) |
| 35.2 | CCC(C)[C@@H]1NC(=O)[C@H](Cc2ccc(-c3ccccc3)cc2)NC(=O)[C@H](C(C)C)NC(=O)[C@H](Cc2c[nH]c3ccccc23)NC(=O)[C@H](CC(=O)O)NC(=O)[C@H](Cc2ccc(OCC(=O)O)cc2)NC(=O)[C@H](Cc2ccncc2)NC(=O)CSC[C@@H](C(=O)N[C@H](CN)C(=O)NCCOCCOCC(=O)N[C@@H](CCC(=O)NCCCCCCCCCCC(=O)O)C(=O)O)NC(=O)[C@H](CO)NC(=O)[C@H](C(C)C)NC(=O)[C@H](CC2CCCCC2)NC(=O)[C@H](CC(N)=O)NC(=O)[C@@H](CC(C)C)NC(=O)[C@H](C)N(C)C1=O (stereo partly drawn) [Example 2067] ({CH2CO}-[4Pal]Y(Carboxymethyl)DWV[Bip][Ile(3ξ)][NMeA][dL]N[Cha]VSC[dDap][AEEA][γGlu][Aun]-OH; thioether N-14) |
| 106 | CCC(C)[C@@H]1NC(=O)[C@H](Cc2ccc(-c3ccccc3)cc2)NC(=O)[C@H](C(C)C)NC(=O)[C@H](Cc2c[nH]c3ccccc23)NC(=O)[C@H](CC(=O)O)NC(=O)[C@H](Cc2ccc(O)cc2)NC(=O)[C@H](Cc2ccncc2)NC(=O)CSC[C@@H](C(=O)N[C@@H](CN)C(=O)NCCOCCOCC(=O)NCCCCCCCCCCC(=O)O)NC(=O)[C@H](C(C)O)NC(=O)[C@H](C(C)C)NC(=O)[C@H](CC2CCCCC2)NC(=O)[C@H](CC(N)=O)NC(=O)[C@@H](CC(C)C)NC(=O)[C@H](C)N(C)C1=O (stereo partly drawn) [Example 2068] ({CH2CO}-[4Pal]YDWV[Bip][Ile(3ξ)][NMeA][dL]N[Cha]V[Thr(3ξ)]C[Dap][AEEA][Aun]-OH; thioether N-14) |
| 24.5 | CCC(C)[C@@H]1NC(=O)[C@H](Cc2ccc(-c3ccccc3)cc2)NC(=O)[C@H](CC(C)C)NC(=O)[C@H](Cc2c[nH]c3ccccc23)NC(=O)[C@H](CC(=O)O)NC(=O)[C@H](Cc2ccc(C(=O)O)cc2)NC(=O)[C@H](Cc2ccc(OCC(=O)O)cc2)NC(=O)CSC[C@@H](C(=O)N[C@@H](CC(N)=O)C(=O)N[C@@H](CCC(=O)NCCCCCCCCCCC(=O)O)C(=O)O)NC(=O)[C@H](CO)NC(=O)[C@H](C(C)C)NC(=O)[C@H](CC2CCCCC2)NC(=O)[C@H](CCN)NC(=O)[C@@H](CC(C)C)NC(=O)[C@H](C)N(C)C1=O (stereo partly drawn) [Example 2069] ({CH2CO}-Y(Carboxymethyl)[Phe(4-COOH)]DWL[Bip][Ile(3ξ)][NMeA][dL][Dab][Cha]VSCN[γGlu][Aun]-OH; thioether N-14) |
| 97.4 | CCC(C)[C@@H]1NC(=O)[C@H](Cc2ccc(-c3ccccc3)cc2)NC(=O)[C@H](CC(C)C)NC(=O)[C@H](Cc2c[nH]c3ccccc23)NC(=O)[C@H](CC(=O)O)NC(=O)[C@H](Cc2ccc(O)cc2)NC(=O)[C@H](Cc2ccncc2)NC(=O)CSC[C@@H](C(=O)N[C@H](CCCN)C(=O)NCCOCCOCC(=O)NCCCCCCCCCCC(=O)O)NC(=O)[C@H](CO)NC(=O)[C@H](C(C)C)NC(=O)[C@H](CC2CCCCC2)NC(=O)[C@H](CC(N)=O)NC(=O)[C@@H](CC(C)C)NC(=O)[C@H](C)N(C)C1=O (stereo partly drawn) [Example 2070] ({CH2CO}-[4Pal]YDWL[Bip][Ile(3ξ)][NMeA][dL]N[Cha]VSC[dOrn][AEEA][Aun]-OH; thioether N-14) |
| 20.2 | CCC(C)[C@@H]1NC(=O)[C@H](Cc2ccc(-c3ccccc3)cc2)NC(=O)[C@H](C(C)C)NC(=O)[C@H](Cc2c[nH]c3ccccc23)NC(=O)[C@H](CC(=O)O)NC(=O)[C@H](Cc2ccc(O)cc2)NC(=O)[C@H](Cc2ccncc2)NC(=O)CSC[C@@H](C(=O)N[C@H](CN)C(=O)NCCOCCOCC(=O)NCCCCCCCCCCC(=O)O)NC(=O)[C@H](C(C)O)NC(=O)[C@H](C(C)C)NC(=O)[C@H](CC2CCCCC2)NC(=O)[C@H](CCN)NC(=O)[C@@H](CC(C)C)NC(=O)[C@H](C)N(C)C1=O (stereo partly drawn) [Example 2071] ({CH2CO}-[4Pal]YDWV[Bip][Ile(3ξ)][NMeA][dL][Dab][Cha]V[Thr(3ξ)]C[dDap][AEEA][Aun]-OH; thioether N-14) |
| 25.4 | CCC(C)[C@@H]1NC(=O)[C@H](Cc2ccc(-c3ccccc3)cc2)NC(=O)[C@H](CC(C)C)NC(=O)[C@H](Cc2c[nH]c3ccccc23)NC(=O)[C@H](CC(=O)O)NC(=O)[C@H](Cc2ccc(O)cc2)NC(=O)[C@H](CC(N)=O)NC(=O)CSC[C@@H](C(=O)N[C@@H](C)C(=O)NCCOCCOCC(=O)NCCCCCCCCCCC(=O)O)NC(=O)[C@H](CO)NC(=O)[C@H](C(C)C)NC(=O)[C@H](CC2CCCCC2)NC(=O)[C@H](CCN)NC(=O)[C@@H](CC(C)C)NC(=O)[C@H](C)N(C)C1=O (stereo partly drawn) [Example 2072] ({CH2CO}-NYDWL[Bip][Ile(3ξ)][NMeA][dL][Dab][Cha]VSCA[AEEA][Aun]-OH; thioether N-14) |
| 44 | CCC(C)[C@@H]1NC(=O)[C@H](Cc2ccc(-c3ccccc3)cc2)NC(=O)[C@H](CC(C)C)NC(=O)[C@H](Cc2c[nH]c3ccccc23)NC(=O)[C@H](CC(=O)O)NC(=O)[C@H](Cc2ccc(O)cc2)NC(=O)[C@H](Cc2ccncc2)NC(=O)CSC[C@@H](C(=O)N[C@@H](CCCN)C(=O)NCCOCCOCC(=O)NCCCCCCCCCCC(=O)O)NC(=O)[C@H](CO)NC(=O)[C@H](C(C)C)NC(=O)[C@H](CC2CCCCC2)NC(=O)[C@H](CCN)NC(=O)[C@@H](CC(C)C)NC(=O)[C@H](C)N(C)C1=O (stereo partly drawn) [Example 2073] ({CH2CO}-[4Pal]YDWL[Bip][Ile(3ξ)][NMeA][dL][Dab][Cha]VSC[Orn][AEEA][Aun]-OH; thioether N-14) |
| 9.9 | CCC(C)[C@@H]1NC(=O)[C@H](Cc2ccc(-c3ccccc3)cc2)NC(=O)[C@H](CC(C)C)NC(=O)[C@H](Cc2c[nH]c3ccccc23)NC(=O)[C@H](CC(=O)O)NC(=O)[C@H](Cc2ccc(C(=O)O)cc2)NC(=O)[C@H](Cc2ccc(OCC(=O)O)cc2)NC(=O)CSC[C@@H](C(=O)NCCOCCOCC(=O)N[C@@H](CN)C(=O)NCCCCCCCCCCC(=O)O)NC(=O)[C@H](CO)NC(=O)[C@H](C(C)C)NC(=O)[C@H](CC2CCCCC2)NC(=O)[C@H](CCN)NC(=O)[C@@H](CC(C)C)NC(=O)[C@H](C)N(C)C1=O (stereo partly drawn) [Example 2074] ({CH2CO}-Y(Carboxymethyl)[Phe(4-COOH)]DWL[Bip][Ile(3ξ)][NMeA][dL][Dab][Cha]VSC[AEEA][Dap][Aun]-OH; thioether N-14) |
| 15.5 | CCC(C)[C@@H]1NC(=O)[C@H](Cc2ccc(-c3ccccc3)cc2)NC(=O)[C@H](CC(C)C)NC(=O)[C@H](Cc2c[nH]c3ccccc23)NC(=O)[C@H](CC(=O)O)NC(=O)[C@H](Cc2ccc(C(=O)O)cc2)NC(=O)[C@H](Cc2ccc(OCC(=O)O)cc2)NC(=O)CSC[C@@H](C(=O)N[C@@H](CC(N)=O)C(=O)NCCOCCOCC(=O)N[C@@H](CN)C(=O)NCCCCCCCCCCC(=O)O)NC(=O)[C@H](CO)NC(=O)[C@H](C(C)C)NC(=O)[C@H](CC2CCCCC2)NC(=O)[C@H](CCN)NC(=O)[C@@H](CC(C)C)NC(=O)[C@H](C)N(C)C1=O (stereo partly drawn) [Example 2075] ({CH2CO}-Y(Carboxymethyl)[Phe(4-COOH)]DWL[Bip][Ile(3ξ)][NMeA][dL][Dab][Cha]VSCN[AEEA][Dap][Aun]-OH; thioether N-14) |
| 54.3 | CCC(C)[C@@H]1NC(=O)[C@H](Cc2ccc(-c3ccccc3)cc2)NC(=O)[C@H](CC(C)C)NC(=O)[C@H](Cc2c[nH]c3ccccc23)NC(=O)[C@H](CC(=O)O)NC(=O)[C@H](Cc2ccc(O)cc2)NC(=O)[C@H](CC(N)=O)NC(=O)CSC[C@@H](C(=O)N[C@@H](C)C(=O)NCCOCCOCC(=O)N[C@@H](CCCN)C(=O)NCCCCCCCCCCC(=O)O)NC(=O)[C@H](CO)NC(=O)[C@H](C(C)C)NC(=O)[C@H](CC2CCCCC2)NC(=O)[C@H](CC(N)=O)NC(=O)[C@@H](CC(C)C)NC(=O)[C@H](C)N(C)C1=O (stereo partly drawn) [Example 2076] ({CH2CO}-NYDWL[Bip][Ile(3ξ)][NMeA][dL]N[Cha]VSCA[AEEA][Orn][Aun]-OH; thioether N-14) |
